Data taken from patent US20260092054A1, “FUSED RING COMPOUND AND PHARMACEUTICAL CONTAINING SAME” (KAKEN PHARMACEUTICAL CO., LTD., priority 2022, published 2026).

Columns and labels:
human STAT6 = assay: Human STAT6 dependent reporter activity (IL-4 stimulated STAT6 reporter assay using STAT6-HEK293 cells); format: cell-based; details: Homo sapiens, IL-4 stimulation, luciferase activity, read-out: Inhibition rate (%); for inhibition at 0.1 µM: compound 0.1 μmol/L; for inhibition at 1 µM: compound 1 μmol/L
human STAT6/pIL-4Rα = target: T1, human STAT6/pIL-4Rα (Homo sapiens, UniProt P42226); assay: Binding inhibitory activity between human STAT6/pIL-4Rα by fluorescence polarization method; details: rhSTAT6 (123-658) / FAM-pIL-4Rα peptide
T1 construct: histidine tag
T1 sequence (P42226 123-658): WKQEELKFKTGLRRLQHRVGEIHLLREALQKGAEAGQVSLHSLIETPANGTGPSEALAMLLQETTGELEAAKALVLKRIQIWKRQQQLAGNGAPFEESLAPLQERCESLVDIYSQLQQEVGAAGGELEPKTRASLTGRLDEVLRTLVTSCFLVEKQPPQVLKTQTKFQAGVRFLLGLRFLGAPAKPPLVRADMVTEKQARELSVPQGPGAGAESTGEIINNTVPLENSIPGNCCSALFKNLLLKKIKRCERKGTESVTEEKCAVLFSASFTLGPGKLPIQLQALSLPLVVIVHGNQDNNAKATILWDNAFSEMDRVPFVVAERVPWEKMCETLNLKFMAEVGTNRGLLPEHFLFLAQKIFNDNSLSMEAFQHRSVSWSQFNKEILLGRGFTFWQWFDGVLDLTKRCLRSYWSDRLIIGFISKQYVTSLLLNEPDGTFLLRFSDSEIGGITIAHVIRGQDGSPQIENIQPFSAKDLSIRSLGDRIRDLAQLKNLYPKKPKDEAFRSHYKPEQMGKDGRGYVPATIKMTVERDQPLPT
How it was run: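 His-tagged human STAT6 (residues 123–658, E. coli-expressed) was preincubated with compound for 30 min at RT in the dark, in buffer e.g. 50 mM NaCl, 10 mM HEPES pH 7.0, 1 mM DTT, 1 mM EDTA, 0.01% NP-40. FAM-pIL-4Rα peptide was then added for 30 min. Fluorescence polarisation was read at 485/535 nm, with IC50 interpolated linearly between two points flanking 50%.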

Row | SMILES | inhibition at 0.1 µM (human STAT6) | IC50 (human STAT6/pIL-4Rα) | inhibition at 1 µM (human STAT6)
1 | CCn1c(-c2ccc(N3C(=O)C(C)CC3C)nc2)cc2cc(C(F)(F)F)cc(C(=O)Nc3ccc(F)c(C(N)=O)c3)c21 (stereo not drawn) [Ex. 157] | 62% | 310 nM | –
2 | CCn1c(-c2ccc(N3C(=O)C(C)CC3C)cc2)cc2cccc(C(=O)Nc3ccc(F)c(C(N)=O)c3)c21 (stereo not drawn) [Ex. 158] | 44% | 730 nM | 96%
3 | CCn1c(-c2ccc(N3C(=O)C(C)CC3C)cc2)cc2cc(C(F)(F)F)cc(C(=O)Nc3cccc(C(N)=O)c3)c21 (stereo not drawn) [Ex. 159] | 50% | 530 nM | 95%
4 | CCn1c(-c2ccc(N3C(=O)C(C)CC3C)cc2)cc2cc(C(F)(F)F)cc(C(=O)Nc3ccc(F)c(C(N)=O)c3)c21 (stereo not drawn) [Ex. 160] | 93% | 410 nM | 100%
5 | CCn1c(-c2ccc(N3C(=O)C(C)CC3C)cc2)cc2cc(C(F)(F)F)cc(C(=O)Nc3cccc(C(N)=O)c3F)c21 (stereo not drawn) [Ex. 161] | 86% | 870 nM | 99%
6 | COCCn1c(-c2ccc(-n3c(C)nn(C)c3=O)cc2)cc2cc(C(F)(F)F)cc(C(=O)Nc3cccc(C(=O)Nc4cc[nH]n4)c3)c21 [Ex. 163] | 60% | 270 nM | 99%
7 | CCn1c(-c2ccc(-n3c(C)nn(C)c3=O)cc2)cc2ccnc(C(=O)Nc3cccc(C(=O)Nc4cc(C)cn(C)c4=O)c3)c21 [Ex. 165] | 86% | 200 nM | 100%
8 | CCn1c(-c2ccc(-n3c(C)nn(C)c3=O)cc2)cc2ccnc(C(=O)Nc3cccc(C(=O)Nc4cn(C)c(=O)n(C)c4=O)c3)c21 [Ex. 166] | 76% | 350 nM | 99%
9 | CCn1c(-c2ccc(-n3c(C)nn(C)c3=O)cc2)cc2ccnc(C(=O)Nc3cccc(C(=O)Nc4cncn(C)c4=O)c3)c21 [Ex. 167] | 90% | 240 nM | 99%
10 | CCn1c(-c2ccc(-n3c(C)nn(C)c3=O)cc2)cc2ccnc(C(=O)Nc3ccc(F)c(C(=O)NCC#N)c3)c21 [Ex. 168] | 60% | 350 nM | 99%
11 | CCn1c(-c2ccc(-n3c(C)nn(C)c3=O)cc2)cc2ccnc(C(=O)Nc3cccc(C(=O)Nc4cccn(C)c4=O)c3)c21 [Ex. 169] | 81% | 400 nM | 99%
12 | CCn1c(-c2ccc(-n3c(C)nn(C)c3=O)cc2)cc2cc(C(F)(F)F)cc(C(=O)Nc3cccc(C(=O)NCC(=O)N(C)C)c3)c21 [Ex. 170] | 49% | 400 nM | 99%
13 | COCCn1c(-c2ccc(-n3c(C)nn(C)c3=O)cc2)cc2cc(C(F)(F)F)cc(C(=O)Nc3cccc(C(N)=O)n3)c21 [Ex. 171] | 29% | 330 nM | 95%
14 | CNC(=O)c1cccc(NC(=O)c2cc(C(F)(F)F)cc3cc(-c4ccc(-n5c(C)nn(C)c5=O)cc4)n(CCOC)c23)n1 [Ex. 172] | 17% | 380 nM | 83%
15 | COCCn1c(-c2ccc(-n3c(C)nn(C)c3=O)cc2)cc2cc(C(F)(F)F)cc(C(=O)Nc3cccc(C(=O)Nc4cccc(OC)n4)c3)c21 [Ex. 173] | 43% | 340 nM | 100%
16 | COCCn1c(-c2ccc(-n3c(C)nn(C)c3=O)cc2)cc2cc(C(F)(F)F)cc(C(=O)Nc3cccc(C(=O)Nc4cccc(COC)n4)c3)c21 [Ex. 174] | 70% | 680 nM | –
17 | COCCn1c(-c2ccc(-n3c(C)nn(C)c3=O)cc2)cc2cc(C(F)(F)F)cc(C(=O)Nc3cccc(C(=O)Nc4cccn(C)c4=O)c3)c21 [Ex. 175] | 65% | 400 nM | –
18 | COCCn1c(-c2ccc(-n3c(C)nn(C)c3=O)cc2)cc2cc(C(F)(F)F)cc(C(=O)Nc3cccc(C(=O)Nc4cc(Cl)n(C)n4)c3)c21 [Ex. 176] | 93% | 280 nM | –
19 | CCn1ccc(NC(=O)c2cccc(NC(=O)c3cc(C(F)(F)F)cc4cc(-c5ccc(-n6c(C)nn(C)c6=O)cc5)n(CCOC)c34)c2)n1 [Ex. 177] | 99% | 300 nM | –
20 | COCCn1c(-c2ccc(-n3c(C)nn(C)c3=O)cc2)cc2cc(C(F)(F)F)cc(C(=O)Nc3cccc(C(=O)Nc4ccn(C5CC5)n4)c3)c21 [Ex. 178] | 100% | 280 nM | –
21 | COCCn1c(-c2ccc(-n3c(C)nn(C)c3=O)cc2)cc2cc(C(F)(F)F)cc(C(=O)Nc3cccc(C(=O)Nc4cc(C#N)n(C)n4)c3)c21 [Ex. 179] | 93% | 320 nM | –

Row | SMILES | inhibition at 0.1 µM (human STAT6) | IC50 (human STAT6/pIL-4Rα) | inhibition at 1 µM (human STAT6)
22 | COCCn1c(-c2ccc(-n3c(C)nn(C)c3=O)cc2)cc2cc(C(F)(F)F)cc(C(=O)Nc3cccc(C(=O)Nc4ccn(CC5CC5)n4)c3)c21 [Ex. 180] | 100% | 300 nM | –
23 | COCCn1c(-c2ccc(-n3c(C)nn(C)c3=O)cc2)cc2cc(C(F)(F)F)cc(C(=O)Nc3cccc(C(=O)Nc4ccn(CC(=O)OC)n4)c3)c21 [Ex. 181] | 94% | 310 nM | –
24 | COCCn1c(-c2ccc(-n3c(C)nn(C)c3=O)cc2)cc2cc(C(F)(F)F)cc(C(=O)Nc3cccc(C(=O)Nc4ccc(C)nn4)c3)c21 [Ex. 182] | 52% | 350 nM | 100%
25 | COCCn1c(-c2ccc(-n3c(C)nn(C)c3=O)cc2)cc2cc(C(F)(F)F)cc(C(=O)Nc3cccc(C(=O)Nc4ccn(CC#N)n4)c3)c21 [Ex. 183] | 86% | 230 nM | –
26 | CCn1c(-c2ccc(-n3c(C)nn(C)c3=O)cc2)cc2ccnc(C(=O)Nc3ccc(F)c(C(=O)Nc4cc[nH]n4)c3)c21 [Ex. 185] | 34% | 470 nM | 96%
27 | CCn1c(-c2ccc(-n3c(C)nn(C)c3=O)cc2)cc2ccnc(C(=O)Nc3cccc(C(=O)Nc4cccn(C(F)F)c4=O)c3)c21 [Ex. 186] | 43% | 330 nM | 96%
28 | CCn1c(-c2ccc(-n3c(C)nn(C)c3=O)cc2)cc2ccnc(C(=O)Nc3cccc(C(=O)Nc4ccc(C)n(C)c4=O)c3)c21 [Ex. 187] | 88% | 340 nM | –
29 | CCn1c(-c2ccc(-n3c(C)nn(C)c3=O)cc2)cc2ccnc(C(=O)Nc3cccc(C(=O)Nc4c(C)ccn(C)c4=O)c3)c21 [Ex. 188] | 44% | 320 nM | 97%
30 | CCn1c(-c2ccc(-n3c(C)nn(C)c3=O)cc2)cc2ccnc(C(=O)Nc3cccc(C(=O)NCC#N)c3)c21 [Ex. 189] | 72% | 380 nM | 97%
31 | CCn1c(-c2ccc(-n3c(C)nn(C)c3=O)cc2)cc2ccnc(C(=O)Nc3cccc(C(=O)NCC#N)c3F)c21 [Ex. 190] | 66% | 410 nM | 97%
32 | CCn1c(-c2ccc(-n3c(C)nn(C)c3=O)cc2)cc2ccnc(C(=O)Nc3ccc(F)c(C(=O)Nc4cn(C)c(=O)n(C)c4=O)c3)c21 [Ex. 191] | 63% | 290 nM | –
33 | CCn1c(-c2ccc(-n3c(C)nn(C)c3=O)cc2)cc2ccnc(C(=O)Nc3ccc(F)c(C(=O)Nc4cncn(C)c4=O)c3)c21 [Ex. 192] | 71% | 340 nM | –
34 | CCn1c(-c2ccc(-n3c(C)nn(C)c3=O)cc2)cc2ccnc(C(=O)Nc3cccc(C(=O)Nc4cncn(C)c4=O)c3F)c21 [Ex. 193] | 67% | 420 nM | 98%
35 | CCn1c(-c2ccc(-n3c(C)nn(C)c3=O)cc2)cc2ccnc(C(=O)Nc3ccc(F)c(C(=O)Nc4cc(C)cn(C)c4=O)c3)c21 [Ex. 194] | 68% | 420 nM | 98%
36 | CCn1c(-c2ccc(-n3c(C)nn(C)c3=O)cc2)cc2ccnc(C(=O)Nc3ccc(F)c(C(=O)Nc4ccc(C)n(C)c4=O)c3)c21 [Ex. 195] | 56% | 290 nM | –
37 | COCCn1c(-c2ccc(-n3c(C)nn(C)c3=O)cc2)cc2ccnc(C(=O)Nc3cccc(C(=O)Nc4cccn(C)c4=O)c3)c21 [Ex. 196] | 81% | 270 nM | –
38 | COCCn1c(-c2ccc(-n3c(C)nn(C)c3=O)cc2)cc2ccnc(C(=O)Nc3cccc(C(=O)Nc4cccc(OC)n4)c3)c21 [Ex. 197] | 73% | 250 nM | –
39 | CCn1c(-c2ccc(-n3c(C)nn(C)c3=O)cc2)cc2ccnc(C(=O)Nc3cccc(C(=O)Nc4cc(Cl)n(C)n4)c3)c21 [Ex. 198] | 96% | 410 nM | –
40 | Cc1nn(C)c(=O)n1-c1ccc(-c2cc3ccnc(C(=O)Nc4cccc(C(=O)Nc5cccn(C)c5=O)c4)c3n2CC2CC2)cc1 [Ex. 199] | 67% | 270 nM | –
41 | Cc1nn(C)c(=O)n1-c1ccc(-c2cc3ccnc(C(=O)Nc4cccc(C(=O)Nc5cccn(C)c5=O)c4)c3n2CC2(C#N)CC2)cc1 [Ex. 200] | 53% | 230 nM | 99%
